# Test results taken from patent US20240285656A1, “CANNABIDIOL (CBD) AND TERPENE F[…] INCREASES RESTORATIVE SLEEP IN HUMANS” (Defined Research, Inc., priority 2022, published 2024).
# What was measured:
# [1] = cited from earlier work
# [2] = after one week of dosing; effect blocked by flumazenil; cited from earlier work
# [3] = rodents; cited from earlier work
# [4] = preclinical data; cited from earlier work
# [5] = test system: GABAA receptor; conditions: cited from earlier work
# [6] = test system: GABAA receptor; conditions: cited from earlier work; for GABAA receptor activity in cells: cell experiments
# [7] = biological target: T1, SSADH (Homo sapiens, UniProt P51649); conditions: cited from earlier work
# T1 sequence (P51649 48-535): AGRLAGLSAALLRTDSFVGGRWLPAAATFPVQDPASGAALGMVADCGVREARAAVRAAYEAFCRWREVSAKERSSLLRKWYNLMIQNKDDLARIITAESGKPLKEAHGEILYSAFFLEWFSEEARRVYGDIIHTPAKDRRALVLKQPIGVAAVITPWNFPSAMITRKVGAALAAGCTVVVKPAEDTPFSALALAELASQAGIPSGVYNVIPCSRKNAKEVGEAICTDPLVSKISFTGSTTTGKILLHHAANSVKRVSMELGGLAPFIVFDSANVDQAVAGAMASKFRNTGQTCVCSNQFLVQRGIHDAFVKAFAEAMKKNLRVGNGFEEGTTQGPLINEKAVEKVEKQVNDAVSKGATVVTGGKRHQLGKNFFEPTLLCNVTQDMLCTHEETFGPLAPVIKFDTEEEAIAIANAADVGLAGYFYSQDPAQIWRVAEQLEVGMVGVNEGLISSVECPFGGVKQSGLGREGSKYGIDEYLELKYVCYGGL
# [8] = Clinical study 1: sleep survey / Participant Global Impression (PGI) questionnaire; assay type: in vivo, humans; conditions: participant DR11; sleep survey at end of treatment period
# From the text: FIG. 7 is a graph showing the Study Participants Perceived That the CBD formulation Helped Them Sleep Better [p=0.13; (t test). n=23 responders per treatment group. Values are means±SEM]. At the end of each treatment period, study participants used a PGI questionnaire to determine if the treatment influenced their sleep relative to a baseline period before the treatments were initiated. Scoring Matrix: 1=Treatment Helped; 2-No Effect of Treatment; 3-Treatment Worsened.
# In the first study, participants (N=23) were randomized to take a placebo control or the CBD formulation stated as Defined CBD in the Figures (˜300 mg CBD, ˜8 mg terpenes including linalool, myrcene, phytol, limonene, α-terpinene, α-terpineol, α-pinene, and β-caryophyllene) once daily, one hour before bedtime, for seven consecutive nights. […] Indeed, on average, over seven days of treatment, participant DR11 benefitted from nearly an extra hour of restorative sleep each night relative to the placebo control (FIG. 2B). Furthermore, participant DR11 was also able to perceive an improvement in their sleep quality and duration relative to the placebo control when they responded to a clinically validated sleep survey at the end of the treatment periods (as shown in Table 1).
# At the end of each treatment period in the clinical studies, participants completed a modified version of a clinically validated questionnaire entitled the Participant Global Impression (PGI)^28. PGI assessments are based on the participant's global perception of the effects of treatment on sleep during each treatment period, as compared to their sleep during the baseline period of the study. […] Nevertheless, based on post-hoc power analysis performed, this effect would achieve statistical significance with a larger sample number.
# [9] = Clinical study 1 (Le Rêve 1.0): sleep physiology by Whoop sleep-tracking wristband, double-blind placebo-controlled crossover; assay type: in vivo, humans; conditions: participant DR11; 7 days per treatment; relative to placebo
# Method: Two independent clinical studies were completed to determine the effects of the CBD formulation on the structure and function of sleep physiology. Each of these independent studies were performed as a double-blind, placebo-controlled, randomized, crossover investigational study to determine if the CBD formulation influences sleep physiology in humans.
# Primary sleep physiology data was collected from study participants in a completely unbiased manner from a non-invasive sleep-tracking wristband, called “Whoop” (https://www.whoop.com), which electronically collects and transmits sleep data from study participants in the comfort of their own beds. The wristband collects hundreds of data points per second from a 3-axis accelerometer, 3-axis gyroscope, and heart rate sensor. The wristband can accurately measure latency to fall asleep, total sleep time, sleep fragmentation, as well as the time spent in each sleep stage [Light, Slow Wave (Deep), Rapid Eye Movement (REM), and Awake]. The wristband also collects data using photoplethysmography (PPG), a technique that involves measuring blood flow by assessing superficial changes in blood volume. Heart rate, heart rate variability, and respiratory rate, can all be derived from PPG data, and all of these metrics are used in Whoop's sleep detection and staging algorithms. […]
# [10] = Clinical study 1: modified Hamilton Anxiety Rating Scale; assay type: in vivo, humans; conditions: responders n=10; placebo 15
# From the text: FIGS. 8A-8C are graphs showing the CBD formulation Decreasing Anxiety. At the end of each treatment period, study participants completed a clinically-validated survey entitled the Hamilton Anxiety Rating Scale^29. Each item in this rating scale is scored on a scale of 0 (not present) to 4 (severe), with a total score range of 0-53, where <14 indicates mild severity, 15-21 mild to moderate severity, and 22-27 moderate to severe. Based on this survey, the CBD formulation decreases anxiety in participants DR13 (FIG. 8A), DR16 (FIG. 8B), and DR21 (FIG. 8C) relative to the placebo control or CBD alone.
# FIG. 9A is a graph showing the CBD formulation decreases Anxiety in “Responders”. […] Each item in this rating scale is scored on a scale of 0 (not present) to 4 (severe), with a total score range of 0-53, where <14 indicates mild severity, 15-21 mild to moderate severity, and 22-27 moderate to severe. […]
# To measure the effects of the CBD formulation on anxiety, study participants completed a modified version of the Hamilton Anxiety Rating Scale, one of the first rating scales developed to measure the severity of anxiety symptoms that is widely used in clinical and research settings^29. […] Each item is scored on a scale of 0 (not present) to 4 (severe), with a total score range of 0-53, where <14 indicates mild severity, 15-21 mild to moderate severity, and 22-27 moderate to severe.
# [11] = given before simulation public speaking test; vs placebo; cited from earlier work
compound,measurement,setting,value
"CCCCCc1cc(O)c2c(c1)OC(C)(C)[C@@H]1CCC(C)=C[C@@H]21 [THC, tetrahydrocannabinol]",anxiety-promoting properties in clinical studies,[1]; in vivo,anxiogenic
"C=C(C)C1CC=C(C)CC1 (centres unmarked) [limonene, 1-methyl-4-prop-1-en-2-ylcyclohexene]",brain GABA levels,[2],increased
same,locomotor activity,[3],reduced
same,motor coordination,[3],impaired
same,sleep,[3],induced sleep
same,sedation in animals,[4],induce sedation
C=CC(C)(O)CCC=C(C)C (centres unmarked) [linalool],sleep,[3],increases sleep
same,binding to the GABA site or the benzodiazepine site of the GABAA receptor,[5],does not bind
same,GABAA receptor activity in cells,[6],significantly augment
same,sedation in animals,[4],induce sedation
"C=CC(=C)CCC=C(C)C [myrcene, 7-methyl-3-methylene-1,6-octadiene]",GABAA receptor activity in cells,[6],increased
same,sedation in animals,[4],induce sedation
"C/C(=C\CO)CCC[C@H](C)CCC[C@H](C)CCCC(C)C [phytol, (2E,7R,11R)-3,7,11,15-Tetramethylhexadec-2-en-1-ol]",sedative effects blocked by flumazenil,[3],blocked
same,sedation in animals,[4],induce sedation
same,inhibition of SSADH,[7],inhibiting
"CC1=CCC2CC1C2(C)C (stereo not drawn) [α-pinene, 2,6,6-trimethylbicyclo[3.1.1]hept-2-ene]",sedative effects blocked by flumazenil,[3],blocked
same,GABAA receptor activity in cells,[6],increased
same,effect in neurons blocked by flumazenil,"[6]; neurons, flumazenil (benzodiazepine site antagonist)",fully blocked
same,sedation in animals,[4],induce sedation
"CC1=CC=C(C(C)C)CC1 [α-terpinene, 1-methyl-4-propan-2-ylcyclohexa-1,3-diene]",sedation in animals,[4],induce sedation
"CC1=CCC(C(C)(C)O)CC1 (stereo not drawn) [α-terpineol, 2-(4-methylcyclohex-3-en-1-yl)propan-2-ol]",GABAA receptor activity in cells,[6],increase
same,sedation in animals,[4],induce sedation
C=C1CC/C=C(\C)CC[C@@H]2[C@@H]1CC2(C)C [β-caryophyllene],locomotor activity,[3],did not affect
same,motor coordination,[3],did not affect
same,sleep,[3],mildly promote sleep
same,sedation in animals,[4],induce sedation
cannabidiol [CBD alone],block of the anxiogenic effects of THC,[1]; clinical studies,can be blocked
same,Decreased Sleep Onset,[8],No
same,Improved Sleep,[8],No
same,Lengthened Sleep Duration,[8],No
same,increase in percentage of time spent in REM sleep,[9],about 4%
same,increase in percentage of time spent in restorative sleep,[9],about 2%
same,Hamilton Anxiety Rating Scale score,[10],11
same,"anxiety, cognitive impairment and discomfort",[11],significantly reduced
same,hyper-alertness in anticipatory speech,[11],significantly decreased
